Experimental data from patent US20040072851A1, “Medicinal compositions for treating lower uropathy” (priority 2001, published 2004).
Structures can show the parent of a compound that is named as a salt.

How the values were obtained:
[1] = test system: patients suffering from lower urinary tract symptoms; experiment: Clinical test to patients suffering from lower urinary tract symptoms (four-week test); format: in vivo, human; conditions: for Total score for subjective symptoms after the test: 0.2 mg capsule orally once daily after breakfast; for Changing Rate (%) of total score for subjective symptoms: 0.2 mg capsule orally once daily, after vs before the test
Protocol: A clinical test was carried out under the following conditions using the patients suffering from lower urinary tract symptoms. (cf. Chapter 1: Indexes for Evaluation of Prostatic Hypertrophy in “Guideline for Clinical Test for Urinary Disturbance” published by Iyaku Tosho Shuppan) Subjects: four patients diagnosed as lower urinary tract symptoms, i.e. urinary disturbance without clear organic or neurological abnormality in lower urinary tract (3 males and 1 female). Test drug and administering method: One capsule containing 0.2 mg of tamsulosin hydrochloride was orally administered once daily after breakfast. Test period: four weeks (28 days) Observed items: Evaluations and measurements were made for the following items before and after the administration. (1) Total Score for Subjective Symptoms Questioning was done to the patients for the following items and the total score was obtained. (2) QOL Index With regard to an index for quality of life (QOL), a questioning that “How do you think if the present urinary condition continues in future as well?” was done as a total diagnosis concerning the urinary disturbance and any of the following evaluations was collected.

[2] = test system: patients suffering from lower urinary tract symptoms; experiment: Clinical test to patients suffering from lower urinary tract symptoms (twelve-week test); format: in vivo, human
Protocol: A clinical test was carried out under the following conditions using the patients suffering from lower urinary tract symptoms. Subjects: eighteen patients diagnosed as lower urinary tract symptoms, i.e. urinary disturbance without clear organic or neurological abnormality in lower urinary tract (15 males and 3 female, age: 57.2±14.2). Test drug and administering method: One capsule containing 0.2 mg of tamsulosin hydrochloride was orally administered once daily after breakfast for four weeks and, after that, the dose after 4 weeks was controlled in consideration of the following criterion, and the dose was orally administered once daily after breakfast. [table] Test period: twelve weeks (84 days)(4 weeks (28 days) for 8 males) Observed items: Evaluations and measurements were made for the following items before and after the administration. (1) Total Score for Subjective Symptoms Total scores for the following <1>˜<7>before and after the administration were obtained in the same way as in Test Example 1. <1>Feel of residual urine, <2>Urination within two hours, <3>Break of urinary stream, <4>Urgency, <5>Force of urinary stream, <6>Straining upon urination and <7>Frequency of urination at night. (2) QOL Index “How do you think if the present urinating state continues in future as well?” (3) Test on Functions <1>maximum urinary stream rate <2>average urinary stream rate

neurogenic bladder = conditions: applicant's earlier filing PCT/JP99/03343; cited from earlier work
[3] = avg. of four patients, four weeks
[4] = Female (n = 3), after 4 week, 0.2 mg/day orally
[5] = Female (n = 3), after 12 week, 0.2 mg/day for 4 weeks, then 0.2 or 0.4 mg/day orally
[6] = Total (n = 10), after 12 week, 0.2 mg/day for 4 weeks, then 0.2 or 0.4 mg/day orally
[7] = Total (n = 18), after 4 week, 0.2 mg/day orally
[8] = male (n = 7), after 12 week, 0.2 mg/day for 4 weeks, then 0.2 or 0.4 mg/day orally
[9] = male (n = 15), after 4 week, 0.2 mg/day orally

CCOc1ccccc1OCCN[C@H](C)Cc1ccc(OC)c(S(N)(=O)=O)c1 [tamsulosin hydrochloride]
Total score for subjective symptoms after the test [1, 3]: 13.3
Changing Rate (%) of total score for subjective symptoms [1, 3]: −40.8%
Improvement in QOL index ([1]; four patients, average, after vs before administration, four weeks): improvement of one point in average
QOL index, mean value after the administration ([1]; four patients, 0.2 mg orally once daily, four weeks, scale 0 (quite satisfactory) to 6 (quite unsatisfactory), before administration 4.8): 3.8
Overall conclusion on efficacy (total score for subjective symptom, QOL index) ([1]; four-week test, 0.2 mg orally once daily): confirmed to be effective as a therapeutic agent for lower urinary tract symptoms
Total score for subjective symptoms after the test ([1]; patient four, four weeks): 13
Changing Rate (%) of total score for subjective symptoms ([1]; patient four, four weeks): −48.0%
Total score for subjective symptoms after the test ([1]; patient one, four weeks): 11
Changing Rate (%) of total score for subjective symptoms ([1]; patient one, four weeks): −26.7%
Total score for subjective symptoms after the test ([1]; patient three, four weeks): 20
Changing Rate (%) of total score for subjective symptoms ([1]; patient three, four weeks): −23.1%
Total score for subjective symptoms after the test ([1]; patient two, four weeks): 9
Changing Rate (%) of total score for subjective symptoms ([1]; patient two, four weeks): −65.4%
Changing Amt of Average urinary stream rate [2, 4]: +2.2 ± 1.8 ml/s
Changing Amt of Maximum urinary stream rate [2, 4]: +3.8 ± 1.9 ml/s
Changing Amt of QOL Index [2, 4]: −1.3 ± 1.2
Changing Rate of Total score for subjective symptoms [2, 4]: −30.5 ± 16.9%
Changing Amt of Average urinary stream rate [2, 5]: +2.1 ± 2.8 ml/s
Changing Amt of Maximum urinary stream rate [2, 5]: +6.2 ± 6.0 ml/s
Changing Amt of QOL Index [2, 5]: −3.0 ± 1.7
Changing Rate of Total score for subjective symptoms [2, 5]: −37.4 ± 26.8%
Changing Amt of Average urinary stream rate [2, 6]: +3.8 ± 2.5 ml/s
Changing Amt of Maximum urinary stream rate [2, 6]: +7.3 ± 4.6 ml/s
Changing Amt of QOL Index [2, 6]: −2.9 ± 1.7
Changing Rate of Total score for subjective symptoms [2, 6]: −44.6 ± 32.1%
Changing Amt of Average urinary stream rate [2, 7]: +2.0 ± 3.3 ml/s
Changing Amt of Maximum urinary stream rate [2, 7]: +3.1 ± 6.7 ml/s
Changing Amt of QOL Index [2, 7]: −1.6 ± 1.7
Changing Rate of Total score for subjective symptoms [2, 7]: −40.9 ± 25.2%
effective rate (Degree of Improvement as a whole is more than "Useful") ([2]; after 12 weeks, decided by Guideline for Clinical Test for Urinary Disturbance): 70.0%
Changing Amt of Average urinary stream rate [2, 8]: +4.6 ± 2.2 ml/s
Changing Amt of Maximum urinary stream rate [2, 8]: +7.8 ± 4.3 ml/s
Changing Amt of QOL Index [2, 8]: −2.9 ± 1.9
Changing Rate of Total score for subjective symptoms [2, 8]: −47.0 ± 35.6%
Changing Amt of Average urinary stream rate [2, 9]: +1.9 ± 3.6 ml/s
Changing Amt of Maximum urinary stream rate [2, 9]: +2.9 ± 7.4 ml/s
Changing Amt of QOL Index [2, 9]: −1.6 ± 1.8
Changing Rate of Total score for subjective symptoms [2, 9]: −43.0 ± 26.5%
Overall conclusion on efficacy (total score for subjective symptom, QOL index, test on functions) ([2]; twelve-week test): confirmed to be effective as a therapeutic agent for lower urinary tract symptoms

CCOc1ccccc1OCCN[C@H](C)Cc1ccc(OC)c(S(N)(=O)=O)c1 [tamsulosin]
Clinical efficacy for the therapy of neurogenic bladder (neurogenic bladder): clinically effectively for the therapy of neurogenic bladder
